We go through three molecules from paper PMC5393604, “The fungal natural product azaphilone-9 binds to HuR and inhibits HuR-RNA interaction in vitro” (PLoS ONE, 2017).

Data set [1] concerns the target T1, HuR RRM1/2 (Homo sapiens, UniProt Q15717).
T1 construct: HuR RRM1/2 (residues 18–186); made in house; host or cells: E. coli BL21 (DE3)
In words: NMR titration of 15N/ILV-labeled HuR RRM1/2. It counts as binding. To be noted: equimolar concentration (1:1), 50 μM 15N HuR RRM1/2. The method, then: Proteins for NMR were dissolved in NMR buffer (100 mM NaCl, 10 mM NaPO4 pH 6.8, 10% D2O). ^15N NMR data were acquired using Bruker Avance 800 MHz spectrometer with a TCI cryoprobe. ILV ^13C NMR data were acquired using on a Bruker Avance III 600 MHz spectrometer. NMR data were acquired at 25°C, processed using NMRPipe and analyzed using NMRView. For ^15N and ILV chemical shift mapping, 80 μM ^15N/ILV-labeled HuR RRM1/2 was titrated with unlabeled ARE^c-fos RNA at increasing molar ratios of 1:0, 1:0.5, 1:1, and 1:1.7. AZA-9 was titrated at 1:1 and 1:2 molar ratios into 50 μM ^15N/ ILV-labeled HuR RRM1/2 in NMR buffer with 10% d6-DMSO. […] The ^15N titrations were monitored by acquiring 2D ^1H-^15N TROSY spectra, and the ILV titrations were monitored by acquiring 2D ^1H-^13C HSQC spectra. The published backbone amide assignments of HuR RRM1/2 (BMRB entry 26628) and the ILV assignments made herein were used in the NMR analysis.
The interaction of AZA-9 with HuR RRM1/2 was characterized by NMR methods. […] Specifically, residue R97 in the inter-domain linker region (whose intensity reduced by ~50% at equimolar concentration of AZA-9, Fig 4C) has been previously reported as important for RNA binding, RNA recognition and high affinity HuR-RNA complex formation. […]

In another data set the target is T2, HuR (Homo sapiens, UniProt Q15717).
T2 construct: made in house; host or cells: E. coli BL21 (DE3)
Put plainly: Surface plasmon resonance, direct binding to immobilized HuR. The note with it: injected at 0–125 μM, 20°C; n = 2. The method, then:
Surface plasmon resonance (SPR) datasets were acquired using a BIACORE 3000 (GE Healthcare) at 20°C as described. Briefly, HuR was immobilized into a CM5 chip by amine-coupling chemistry and AZA-9 dissolved in buffer (20 mM HEPES pH 7.4, 150 mM NaCl, 3 mM EDTA, 0.05% p20 (v/v), 5% DMSO (v/v)) was injected into the flow cell at a flow rate of 60 μL/min. The mixtures complexes were allowed to associate for 400 sec and dissociate for 160 sec. SPR sensorgrams were generated using Scrubber2 (BioLogic Software, Australia).
Fig 1 AZA-9 inhibits HuR-ARE RNA interaction and binds directly to HuR. Titration of 2 nM ARE^c-fos and control RNA (a 16-nt fluorescein-labeled RNA oligo with random sequence) with (A) HuR and (B) HuR RRM1/2 (n = 3). (C) Dose-response curve of AZA-9 disrupting HuR-ARE^c-fos binding in FP assay using 10 nM HuR and 2 nM fluorescein-labeled ARE^c-fos (n = 3). (D) Dose-response curve of AZA-9 disrupting HuR RRM1/2-ARE^c-fos binding in FP assay using 50 nM HuR RRM1/2 and 2 nM fluorescein-labeled ARE^c-fos (n = 3). (E) SPR sensorgrams of AZA-9 injected at increasing concentrations of 0–125 μM into a flow cell containing immobilized HuR (n = 2). Structure of AZA-9 is shown on the right. The following were the negative controls used–random RNA in (A) and (B); and AZA-15 in (C) and (D). […]

Another data set deals with Musashi-1 (Msi1) (Homo sapiens, UniProt O43347). In words: Binding to Musashi-1 (unpublished data). The note with it: authors' unpublished data.
Data set [2] concerns the target T3, HuR-ARE^c-fos interaction (full length HuR) (Homo sapiens, UniProt Q15717).
T3 construct: full length HuR (326 residues); made in house; host or cells: E. coli BL21 (DE3)
Put plainly: FP competition assay, HuR-ARE^c-fos binding. To be noted: 10 nM full length HuR, 2 nM fluorescein-labeled ARE^c-fos; n = 3; read-out: IC50, disruption of HuR-ARE^c-fos binding. It is filed as biochemical. The method, then:
(§1) Synthetic RNA oligos were from Dharmacon. For FP assay, fluorescein-tagged ARE^Msi1 oligo derived from the 3’-UTR of Musashi RNA-binding protein 1 (Msi1) with the sequence 5’-GCUUUUAUUUAUUUUG-3’ and 11-mer ARE^c-fos RNA oligo (5’-AUUUUUAUUUU-3’) identical to the c-fos RNA sequence used in the crystal structure of HuR-RNA complex were used. For NMR studies, unmodified 11-mer ARE^c-fos RNA oligo [8] was used. Prior to the addition of RNA to the protein, the RNA was heated at 95°C for 5 min followed by immediate cooling on ice for 5 min. The azaphilone derivatives used herein were obtained by semisynthetic diversification of asperbenzaldehyde, which was purified from a strain of Aspergillus nidulans that was engineered to overproduce this compound as described elsewhere. Compounds were dissolved in dimethyl sulfoxide (DMSO) to form 10 mM stock solutions; for NMR studies, deuterated dimethyl sulfoxide (d6-DMSO) was used.
(§2) FP competition assay for screening and hit validation were carried out as reported previously. […] Measurements were taken using a BioTek Synergy H4 hybrid plate reader (Biotek, Winooski, VT) after incubating for 2 hours at room temperature. […] Percent inhibition was calculated by comparing to the DMSO (0% inhibition) and labeled free RNA only (100% inhibition) controls. […]

Data set [3] has as its target T4, HuR-ARE^Msi1 interaction (full length HuR) (Homo sapiens, UniProt Q15717).
T4 construct: full length HuR (326 residues); made in house; host or cells: E. coli BL21 (DE3)
Put plainly: FP competition assay, HuR-ARE^Msi1 binding. It is filed as biochemical. To be noted: 10 nM HuR, 2 nM fluorescein-labeled ARE^Msi1; n = 3; read-out: IC50, inhibition of HuR-ARE^Msi1 interaction. The method, then: Synthetic RNA oligos were from Dharmacon. For FP assay, fluorescein-tagged ARE^Msi1 oligo derived from the 3’-UTR of Musashi RNA-binding protein 1 (Msi1) with the sequence 5’-GCUUUUAUUUAUUUUG-3’ and 11-mer ARE^c-fos RNA oligo (5’-AUUUUUAUUUU-3’) identical to the c-fos RNA sequence used in the crystal structure of HuR-RNA complex were used. For NMR studies, unmodified 11-mer ARE^c-fos RNA oligo [8] was used. Prior to the addition of RNA to the protein, the RNA was heated at 95°C for 5 min followed by immediate cooling on ice for 5 min. […]
FP competition assay for screening and hit validation were carried out as reported previously. […] Measurements were taken using a BioTek Synergy H4 hybrid plate reader (Biotek, Winooski, VT) after incubating for 2 hours at room temperature. […] Percent inhibition was calculated by comparing to the DMSO (0% inhibition) and labeled free RNA only (100% inhibition) controls.
A FP-based high throughput screen on HuR and a 16-mer ARE^Msi1 RNA oligomer from the 3’-UTR of Musashi1 (Msi1) mRNA previously identified novel small molecule inhibitors of HuR-ARE interaction. […] Multi-dose effect was determined to verify the inhibition of HuR-ARE interaction. […]

In data set [4] the target is T5, HuR RRM1/2-ARE^c-fos interaction (Homo sapiens, UniProt Q15717).
T5 construct: HuR RRM1/2 (residues 18–186); made in house; host or cells: E. coli BL21 (DE3)
In words: FP competition assay, HuR RRM1/2-ARE^c-fos binding. It is filed as biochemical. To be noted: 50 nM HuR RRM1/2, 2 nM fluorescein-labeled ARE^c-fos; n = 3; read-out: IC50, disruption of HuR RRM1/2-ARE^c-fos binding. As for the experimental part:
as §1, §2

The target of data set [5] is T6, HuR full length (UniProt Q15717 1-326). Put plainly: fluorescence polarization; 10 nM HuR, 2 nM RNA; complex disrupted by AZA-9 (compound IC50 1.1 uM); FP: room temperature, 2 h incubation in the competition assay, buffer not given (as in cited ref 22); NMR: 100 mM NaCl, 10 mM sodium phosphate pH 6.8, 10% D2O. The note with it: protein: recombinant; single strand. (In general: Polarisation of emitted light reports the rotation of a fluorescent probe.)

Data set [6] concerns the target HuR RRM1/2 (UniProt Q15717 18-186). Put plainly: fluorescence polarization; 2 nM RNA; FP: room temperature, 2 h incubation in the competition assay, buffer not given (as in cited ref 22); NMR: 100 mM NaCl, 10 mM sodium phosphate pH 6.8, 10% D2O. To be noted: protein: recombinant; tags: N-terminal His6 (retained); single strand.
For data set [7], the target named is T6, HuR full length. The data set is described as above. To be noted: protein: recombinant; single strand.

“And” between values parts separate entries of the source, which are not always exact repeats. Equal entries are not always repeated.

For orientation: Kd means the free concentration of one partner at which half of the binding sites on the other are occupied at equilibrium, for simple one-to-one binding.

T6 sequence (Q15717 whole entry): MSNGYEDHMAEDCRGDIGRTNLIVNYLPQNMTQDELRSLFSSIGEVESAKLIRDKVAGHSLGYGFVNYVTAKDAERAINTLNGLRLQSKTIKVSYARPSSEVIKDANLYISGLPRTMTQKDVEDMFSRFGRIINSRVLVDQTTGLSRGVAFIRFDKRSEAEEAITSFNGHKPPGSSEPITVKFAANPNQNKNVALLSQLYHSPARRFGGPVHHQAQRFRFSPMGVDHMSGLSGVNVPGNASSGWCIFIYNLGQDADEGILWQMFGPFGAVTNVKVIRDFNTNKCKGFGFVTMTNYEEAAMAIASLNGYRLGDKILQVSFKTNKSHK
T3 sequence (Q15717 whole entry): as above
T2 sequence (Q15717 whole entry): as above
T4 sequence (Q15717 whole entry): as above
T5 sequence (Q15717 18-186): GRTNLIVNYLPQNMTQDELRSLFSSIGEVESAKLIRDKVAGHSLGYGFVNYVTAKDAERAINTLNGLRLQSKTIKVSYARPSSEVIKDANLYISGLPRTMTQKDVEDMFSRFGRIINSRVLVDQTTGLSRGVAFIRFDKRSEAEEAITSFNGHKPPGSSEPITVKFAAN
Chain of HuR RRM1/2 (UniProt Q15717 18-186) (Q15717 18-186): as above
T1 sequence (Q15717 18-186): as above
Chain of Musashi-1 (Msi1) (O43347 whole entry, species assumed): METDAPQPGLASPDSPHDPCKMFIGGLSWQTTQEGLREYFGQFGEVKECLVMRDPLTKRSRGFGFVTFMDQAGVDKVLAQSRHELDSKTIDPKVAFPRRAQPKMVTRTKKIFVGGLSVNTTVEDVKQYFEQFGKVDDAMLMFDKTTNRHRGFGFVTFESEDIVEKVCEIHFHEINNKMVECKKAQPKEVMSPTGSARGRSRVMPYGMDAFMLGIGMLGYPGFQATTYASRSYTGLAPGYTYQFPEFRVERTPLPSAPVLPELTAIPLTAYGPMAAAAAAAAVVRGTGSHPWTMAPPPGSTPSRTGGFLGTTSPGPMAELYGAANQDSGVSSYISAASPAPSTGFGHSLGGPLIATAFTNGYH

Turning to `CC[C@H](C)/C=C(C)/C=C/C1=CC2=C(Br)C(=O)C(C)(OC(C)=O)C(=O)C2=CO1` (stereo partly drawn) [AZA-9, azaphilone-9], at HuR RRM1/2 [1], the “reduction of NMR peak intensity of residue R97” value is on record as ~ 50%. In addition, the “SPR optical response on immobilized HuR (in words)” value at HuR was “increased optical response in a dose-dependent manner”. Further, the “binding to Musashi-1 (in words)” value at Musashi-1 (Msi1) is given as “also binds”. The IC50 is ~1200 nM and 1200 nM in data set [2]; 1100 nM in data set [3]; 7400 nM in data set [4].

B1: AREMsi1 (fluorescein) (ssRNA)
RNA: GCUUUUAUUUAUUUUG
B1: in the data set with HuR full length [5], the binding result is “binds”.

B2: AREc-fos (fluorescein) (ssRNA)
RNA: AUUUUUAUUUU
Take B2: the figures for the Kd with HuR RRM1/2 [6] and in the data set with HuR full length [7] were 22.2 nM and 3.3 nM, respectively.
